Measured values from patent EP0334551A1, “Anti-neoplastic formulations” (priority 1988, dated 1989).
Like-named read-outs stand apart in the source and are kept apart here.

Tests used:
[1] = in all the infusion fluids studied; cited from earlier work
[2] = reconstituted solutions of the lyophilised powder, cited from earlier work
[3] = aqueous solution of unlyophilised carboplatin in sterile water, at room temperature
Description: The solutions obtained were filled into amber moulded 20 ml vials and sealed with Teflon-lined caps, West 541. The above two solutions were stored at room temperature for 15 months, then tested for stability. […] The solution was filled into 20 ml amber moulded vials and sealed with grey chlorobutyl rubber caps. […] Each solution was filled into 6 ml clear drawn vials and sealed with Teflon lined caps.

Compound	stable (time) [1]	stable (time) ([2]; at room temperature)	stable (time) ([2]; under refrigeration)	stable (time) [3]
iproplatin	24 h	–	–	–
[NH2][Pt]1([NH2])[O]C(=O)C2(CCC2)C(=O)[O]1 [carboplatin, cis-Diamine[1,1-cyclobutanedicarboxylato-(2-)-O,O′]platinum [SP-4-27]]	24 h	8 h	24 h	at least 18 months
